What was measured:
[1] = test system: HUT78; experiment: TUNEL assay, vorinostat, JAK inhibitor and combination; format: cell-based, human; conditions: for % TUNEL positive cells: HUT78 cells, 48 h, induction of apoptosis
[2] = test system: Toledo; experiment: ApoONE Homogeneous Caspase-3/7 Assay; format: cell-based, human
Method: (§1) Apoptosis assay: ApoONE® Homogeneous Caspase-3/7 Assay (Promega) was performed according to standard protocol (Promega). For the caspase assay cell lines were seeded and treated with vorinostat as previously indicated. After 24 hours of treatment, a volume equal to the media volume in each well of Apo-One Caspase 3/7 lysis was added to each well with cells. The apoptosis assay was then performed according to the manufacturer's instructions. The plates were read on the Flex Station II 384 from Molecular Devices. Where indicated, DNA fragmentation in response to vorinostat was also assessed in some cell lines by TUNEL assay (BD-PharMingen). […] Samples were analyzed by flow cytometry (FACSCalibur).
(§2) An expanded set of 50 human cell lines, including the twelve cell lines listed in Table 1, were assembled (Table 2), that represent a range of lymphoid tumor types (including 10 diffuse large B cell lymphoma, 10 Burkitt lymphoma, 8 multiple myeloma and 5 CTCL).

[3] = test system: ST486; experiment: ApoONE Homogeneous Caspase-3/7 Assay; format: cell-based, human; conditions: cell line ST486
Method: as §1, §2

[4] = test system: JM1; experiment: ApoONE Homogeneous Caspase-3/7 Assay; format: cell-based, human; conditions: cell line JM1
Method: as §1, §2

[5] = test system: HH; experiment: ApoONE Homogeneous Caspase-3/7 Assay; format: cell-based, human; conditions: cell line HH
Method: as §1, §2

[6] = test system: SUP_T1; experiment: ApoONE Homogeneous Caspase-3/7 Assay; format: cell-based, human; conditions: cell line SUP_T1 (SUPT1)
Method: as §1, §2

[7] = test system: BC_3; experiment: ApoONE Homogeneous Caspase-3/7 Assay; format: cell-based, human; conditions: cell line BC_3
Method: as §1, §2

[8] = test system: HuT_78; experiment: CellTiter-Blue Cell Viability Assay; format: cell-based; conditions: Homo sapiens, HuT78; cell line HuT_78, Lymphoma- CTCL; read-out: IC50 (μM) (Cell Titre-Blue assay)
Method: (§3) For the proliferation assay, cell lines were seeded on 96-well plates (Corning). […] The CellTiter-Blue Reagent™ was added to each of the wells. Experiments were performed in triplicate. The plates were then placed at 37° C. for two hours, and subsequently read on the Flex Station II […] from Molecular Devices. The IC50 values were calculated using the Sigma Plot software.
as §2

[9] = test system: Toledo; experiment: CellTiter-Blue Cell Viability Assay; format: cell-based; conditions: Homo sapiens, cell line Toledo (1), Lymphoma DLBCL, read-out: IC50 (μM) (Cell Titre-Blue assay)
Method: as §3, §2

[10] = test system: SU_DHL_4; experiment: CellTiter-Blue Cell Viability Assay; format: cell-based; conditions: Homo sapiens, SU-DHL-4; cell line SU_DHL_4, Lymphoma DLBCL; read-out: IC50 (μM) (Cell Titre-Blue assay)
Method: as §3, §2

[11] = test system: HUT_102; experiment: CellTiter-Blue Cell Viability Assay; format: cell-based; conditions: Homo sapiens, HuT-102; cell line HUT_102 (HUT102), Lymphoma - CTCL; read-out: IC50 (μM) (Cell Titre-Blue assay)
Method: as §3, §2

[12] = test system: RL; experiment: CellTiter-Blue Cell Viability Assay; format: cell-based; conditions: Homo sapiens; cell line RL, Lymphoma - DLBCL; read-out: IC50 (μM) (Cell Titre-Blue assay)
Method: as §3, §2

[13] = test system: IM_9; experiment: CellTiter-Blue Cell Viability Assay; format: cell-based; conditions: Homo sapiens, IM-9; cell line IM_9, Multiple Myeloma; read-out: IC50 (μM) (Cell Titre-Blue assay)
Method: as §3, §2

[14] = test system: OCI_LY_19; experiment: CellTiter-Blue Cell Viability Assay; format: cell-based; conditions: Homo sapiens, OCI-LY19; cell line OCI_LY_19, Lymphoma DLBCL; read-out: IC50 (μM) (Cell Titre-Blue assay)
Method: as §3, §2

[15] = test system: DB; experiment: CellTiter-Blue Cell Viability Assay; format: cell-based; conditions: Homo sapiens; cell line DB, Lymphoma DLBCL; read-out: IC50 (μM) (Cell Titre-Blue assay)
Method: as §3, §2

In the case of CN[C@@H]1C[C@H]2O[C@@](C)([C@@H]1OC)n1c3ccccc3c3c4c(c5c6ccccc6n2c5c31)C(=O)NC4 [ST, staurosporine], the “% TUNEL positive cells” value [1] was 40%.
In the case of O=C(CCCCCCC(=O)Nc1ccccc1)NO [vorinostat, suberoylanilide hydroxamic acid], the “Caspase 3,7 activation- 24 h (1 μM vorinostat)*” value (“Caspase 3,7 activation- 24 h” for short) ([2]; cell line Toledo (1)) was “+ (Caspase 3,7 activation > 2 fold over untreated control.)”, the “Caspase 3,7 activation- 24 h” value ([2]; cell line Toledo (avg)) was “+ (Caspase 3,7 activation > 2 fold over untreated control.)” and the “Caspase 3,7 activation- 24 h” value [3] was “+ (Caspase 3,7 activation > 2 fold over untreated control.)”. For the same compound, the “Caspase 3,7 activation- 24 h” value [4] was “+ (Caspase 3,7 activation > 2 fold over untreated control.)”, the “Caspase 3,7 activation- 24 h” value [5] was “+ (Caspase 3,7 activation > 2 fold over untreated control.)” and the “Caspase 3,7 activation- 24 h” value [6] was “+ (Caspase 3,7 activation > 2 fold over untreated control.)”. For the same compound, the “Caspase 3,7 activation- 24 h” value [7] was “+ (Caspase 3,7 activation > 2 fold over untreated control.)”, the “% TUNEL positive cells” value [1] was 11% and the IC50 [8] was 2.13 µM. The IC50 [9] was 0.66 µM, the IC50 [10] was 1.88 µM and the IC50 [11] was 0.83 µM. For the same compound, the IC50 [12] was 2.23 µM, the IC50 [13] was 1.57 µM and the IC50 [14] was 1.58 µM. It also gave an IC50 [15] of 1.87 µM.
CC(C)(C)c1nc2c3cc[nH]c(=O)c3c3cc(F)ccc3c2[nH]1 [Compound B, 2-tert-butyl-9-fluoro-1,6-dihydro-7H-benzo[h]imidazo[4,5-f]isoquinolin-7-one] was tested, and the “induction of apoptosis in combination with vorinostat (TUNEL assay)” value ([1]; HUT78 CTCL cells, as detailed in Table 4) was “synergistic induction of apoptosis” and the “% TUNEL positive cells” value [1] was 37%.

From patent publication US7919261B2, “Methods for predicting treatment response based on the expression profiles of protein and transcription biomarkers” (Merck Sharp & Dohme Corp., priority 2006, dated 2011)
